Measurements published in ChEMBL document CHEMBL1138933 (J Med Chem, 2006).
The source made the active and inactive calls. No cut-off for these calls is given here.

Legend:
[1] = target: Adrenergic receptor alpha-1 (Rattus norvegicus) (UniProt P15823+P23944+P43140); assay: Displacement of [3H]prazosin from alpha-1 adrenergic receptor in Sprague-Dawley rat cortical membranes at 1 uM; format: cell membranes; details: Membrane
[2] = target: Sodium-dependent serotonin transporter (Homo sapiens, UniProt P31645); format: cell-based, JAR
Sodium-dependent serotonin transporter (Homo sapiens, UniProt P31645), sequence (P31645 whole entry): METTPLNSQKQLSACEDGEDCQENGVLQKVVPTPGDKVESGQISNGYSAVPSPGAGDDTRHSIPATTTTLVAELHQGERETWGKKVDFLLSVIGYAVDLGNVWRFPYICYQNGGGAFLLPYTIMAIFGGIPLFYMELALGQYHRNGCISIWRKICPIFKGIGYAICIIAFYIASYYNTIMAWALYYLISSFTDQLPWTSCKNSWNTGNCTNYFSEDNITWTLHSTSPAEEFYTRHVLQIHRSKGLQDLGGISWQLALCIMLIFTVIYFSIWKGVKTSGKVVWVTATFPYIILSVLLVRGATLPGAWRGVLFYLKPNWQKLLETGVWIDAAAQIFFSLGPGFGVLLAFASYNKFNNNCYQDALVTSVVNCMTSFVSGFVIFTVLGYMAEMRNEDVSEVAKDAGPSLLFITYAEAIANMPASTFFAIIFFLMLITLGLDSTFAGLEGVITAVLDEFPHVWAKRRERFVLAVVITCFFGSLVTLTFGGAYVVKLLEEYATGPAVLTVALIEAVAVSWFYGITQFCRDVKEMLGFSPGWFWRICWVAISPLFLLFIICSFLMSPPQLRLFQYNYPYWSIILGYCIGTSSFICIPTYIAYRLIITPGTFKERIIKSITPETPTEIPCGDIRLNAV
Description: Inhibition of [3H]5-HT uptake at human 5-HT transporter expressed in Jar cells

Rattus norvegicus = assay: Increase of 5-HT levels in Sprague-Dawley rat frontal cortex at 30 mg/kg, po relative to control by microdialysis assay; format: functional, organism-based; parameters: dose 30 mg/kg
[3] = target: Sodium-dependent serotonin transporter (Rattus norvegicus, UniProt P31652)
Sodium-dependent serotonin transporter (Rattus norvegicus, UniProt P31652), sequence (P31652 whole entry): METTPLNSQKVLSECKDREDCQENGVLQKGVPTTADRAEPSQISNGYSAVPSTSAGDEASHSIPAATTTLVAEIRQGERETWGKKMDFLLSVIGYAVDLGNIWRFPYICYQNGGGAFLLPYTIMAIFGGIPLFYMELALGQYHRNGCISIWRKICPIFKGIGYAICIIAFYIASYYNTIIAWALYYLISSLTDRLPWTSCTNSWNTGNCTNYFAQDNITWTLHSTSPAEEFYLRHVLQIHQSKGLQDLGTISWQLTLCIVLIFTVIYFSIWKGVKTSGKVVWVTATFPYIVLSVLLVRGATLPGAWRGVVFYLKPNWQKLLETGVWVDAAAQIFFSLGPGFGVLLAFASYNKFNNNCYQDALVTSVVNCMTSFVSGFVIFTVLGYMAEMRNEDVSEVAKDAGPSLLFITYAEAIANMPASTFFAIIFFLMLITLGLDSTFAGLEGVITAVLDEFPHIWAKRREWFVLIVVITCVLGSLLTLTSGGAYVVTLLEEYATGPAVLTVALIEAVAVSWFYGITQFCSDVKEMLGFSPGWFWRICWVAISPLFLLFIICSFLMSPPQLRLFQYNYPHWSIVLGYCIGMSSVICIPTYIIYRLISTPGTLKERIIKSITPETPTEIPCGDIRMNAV
Description: Displacement of [3H]paroxetine from 5-HT transporter in Sprague-Dawley rat cortical membranes

[4] = target: T1, Adrenergic receptor alpha-1 (Rattus norvegicus, UniProt P15823+P23944+P43140); assay: Displacement of [3H]prazosin from alpha-1 adrenergic receptor in Sprague-Dawley rat cortical membranes; format: cell membranes, Membrane
T1 sequence (P15823 whole entry): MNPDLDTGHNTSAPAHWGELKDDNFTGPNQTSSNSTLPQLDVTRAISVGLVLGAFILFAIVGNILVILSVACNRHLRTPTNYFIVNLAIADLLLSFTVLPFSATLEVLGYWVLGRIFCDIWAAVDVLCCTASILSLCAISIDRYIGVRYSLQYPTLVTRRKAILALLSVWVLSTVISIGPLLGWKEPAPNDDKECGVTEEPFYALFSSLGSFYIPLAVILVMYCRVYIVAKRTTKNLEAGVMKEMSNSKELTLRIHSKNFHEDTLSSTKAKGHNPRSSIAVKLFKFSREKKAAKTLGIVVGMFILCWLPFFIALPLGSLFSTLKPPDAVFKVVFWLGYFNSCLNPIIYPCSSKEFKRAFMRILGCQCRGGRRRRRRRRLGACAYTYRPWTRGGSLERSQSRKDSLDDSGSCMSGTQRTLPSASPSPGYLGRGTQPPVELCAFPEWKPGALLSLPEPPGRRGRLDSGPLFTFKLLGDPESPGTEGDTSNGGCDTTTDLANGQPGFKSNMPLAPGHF
T1 sequence (P23944 whole entry): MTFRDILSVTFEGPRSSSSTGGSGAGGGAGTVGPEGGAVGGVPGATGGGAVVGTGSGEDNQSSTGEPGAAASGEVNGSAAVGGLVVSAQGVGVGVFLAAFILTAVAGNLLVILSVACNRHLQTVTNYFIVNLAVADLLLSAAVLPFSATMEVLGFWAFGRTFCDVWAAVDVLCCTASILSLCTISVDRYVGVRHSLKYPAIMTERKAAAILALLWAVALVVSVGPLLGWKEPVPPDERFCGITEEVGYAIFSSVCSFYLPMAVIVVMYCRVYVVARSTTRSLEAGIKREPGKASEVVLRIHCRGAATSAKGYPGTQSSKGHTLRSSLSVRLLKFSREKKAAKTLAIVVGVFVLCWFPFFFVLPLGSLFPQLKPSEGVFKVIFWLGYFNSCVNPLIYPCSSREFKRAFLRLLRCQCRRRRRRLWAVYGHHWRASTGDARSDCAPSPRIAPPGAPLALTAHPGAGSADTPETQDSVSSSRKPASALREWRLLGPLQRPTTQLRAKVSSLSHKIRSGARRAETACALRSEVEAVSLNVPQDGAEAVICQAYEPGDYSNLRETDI
T1 sequence (P43140 whole entry): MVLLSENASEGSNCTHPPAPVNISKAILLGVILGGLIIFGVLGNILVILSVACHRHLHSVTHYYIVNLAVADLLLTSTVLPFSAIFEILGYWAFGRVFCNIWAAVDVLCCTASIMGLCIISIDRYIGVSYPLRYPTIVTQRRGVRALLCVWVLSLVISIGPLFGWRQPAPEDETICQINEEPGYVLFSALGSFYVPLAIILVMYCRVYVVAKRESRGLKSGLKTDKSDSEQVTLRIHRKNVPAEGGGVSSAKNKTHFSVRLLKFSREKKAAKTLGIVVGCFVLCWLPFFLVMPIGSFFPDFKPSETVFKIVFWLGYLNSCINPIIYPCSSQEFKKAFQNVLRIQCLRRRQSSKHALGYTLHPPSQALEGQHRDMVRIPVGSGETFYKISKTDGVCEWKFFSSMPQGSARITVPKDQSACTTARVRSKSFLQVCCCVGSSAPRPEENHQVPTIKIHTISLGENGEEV

[5] = target: T2, 5-hydroxytryptamine receptor 1A (Homo sapiens) (UniProt P08908); assay: Agonist activity at human 5HT1A receptor expressed in CHO cells by inhibition of […] forskolin-stimulated cAMP production relative to 5-HT; format: functional, cell-based
T2 sequence (whole entry): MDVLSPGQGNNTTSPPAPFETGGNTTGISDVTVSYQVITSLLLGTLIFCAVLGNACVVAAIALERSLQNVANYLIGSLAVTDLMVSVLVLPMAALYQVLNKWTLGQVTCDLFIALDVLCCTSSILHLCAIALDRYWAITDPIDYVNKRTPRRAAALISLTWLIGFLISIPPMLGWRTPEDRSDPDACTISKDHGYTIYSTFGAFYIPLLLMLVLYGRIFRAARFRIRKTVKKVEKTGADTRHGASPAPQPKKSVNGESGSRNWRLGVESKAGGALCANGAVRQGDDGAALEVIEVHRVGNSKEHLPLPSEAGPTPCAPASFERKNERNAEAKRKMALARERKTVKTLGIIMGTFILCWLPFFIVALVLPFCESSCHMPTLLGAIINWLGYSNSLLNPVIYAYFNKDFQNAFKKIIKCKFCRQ

[6] = target: T3, 5-hydroxytryptamine receptor 1A (Homo sapiens, UniProt P08908); assay: biochemical
T3 sequence (P08908 whole entry): T2 sequence (whole entry)
Description: Displacement of [3H]-8-OH-DPAT from human 5HT1A receptor expressed in CHO cells

[7] = target: T3, 5-hydroxytryptamine receptor 1A

Compound	inhibition [1] [%]	IC50 [2] [nM]	Activity (Rattus norvegicus)	Ki [3] [nM]	Ki [4] [nM]	Emax [5] [%]	Ki [6] [nM]	IC50 [7] [nM]
NC(=O)c1ccc(F)c2c1C[C@@H](N(CCCc1c[nH]c3ccc(F)cc13)C1CCC1)CO2	21	18.7	Active	1.5	–	–	–	–
NC(=O)c1ccc(F)c2c1C[C@H](N(CCCc1c[nH]c3ccc(F)cc13)C1CCC1)CO2	–	17.4	–	5.3	–	–	–	–
NC(=O)c1ccc(F)c2c1C[C@@H](N(CCCc1c[nH]c3ccc(F)cc13)CC1CC1)CO2	–	59.7	–	3.9	2023	–	–	–
NC(=O)c1ccc(F)c2c1C[C@H](N(CCCc1c[nH]c3ccc(F)cc13)CC1CC1)CO2	26	36.3	–	4.2	–	69	–	–
CCN(CCCc1c[nH]c2ccc(F)cc12)[C@@H]1COc2c(F)ccc(C(N)=O)c2C1	–	37.3	–	3.6	545	91	18.6	–
COc1cccc2c1C[C@@H](N(CCCc1c[nH]c3ccc(F)cc13)C1CCC1)CO2	15	732	–	–	–	–	–	23
CCN(CCCc1c[nH]c2ccc(F)cc12)[C@H]1COc2c(F)ccc(C(N)=O)c2C1	–	42.7	–	3.4	640	–	34.9	135
CCCN(CCCc1c[nH]c2ccc(F)cc12)[C@@H]1COc2c(F)ccc(C(N)=O)c2C1	46	59.9	–	4.7	–	97	3.2	–
NC(=O)c1ccc(F)c2c1C[C@@H](NCCCc1c[nH]c3ccc(F)cc13)CO2	21	197	–	20.4	–	85	45.2	–
CN(CCCc1c[nH]c2ccc(F)cc12)[C@H]1COc2c(F)ccc(C(N)=O)c2C1	37	116	–	14.8	–	–	266	–
CCCN(CCCc1c[nH]c2ccc(F)cc12)[C@H]1COc2c(F)ccc(C(N)=O)c2C1	–	181	–	8	1150	78	1.5	–
CCN(CCCCc1c[nH]c2ccc(F)cc12)C1COc2c(F)ccc(C(N)=O)c2C1 (racemic)	–	24.1	–	0.4	328	–	330	> 1000
CCN(CCCc1c[nH]c2ccc(F)cc12)C1COc2cccc(OC)c2C1 (racemic)	–	64	–	–	207	96	2.3	–
CCCN(CCCCc1c[nH]c2ccc(F)cc12)C1COc2c(F)ccc(C(N)=O)c2C1 (racemic)	–	217	–	12.2	494	–	4.4	–
CCN(CCc1c[nH]c2ccc(F)cc12)C1COc2c(F)ccc(C(N)=O)c2C1 (racemic)	–	883	–	60.2	416	–	33.2	–
COc1cccc2c1CC(N(C)CCCc1c[nH]c3ccc(F)cc13)CO2 (racemic)	–	15	–	–	610	91	–	–
COc1cccc2c1CC(N(CCCc1c[nH]c3ccc(F)cc13)CC1CC1)CO2 (racemic)	44	42.6	–	–	–	91	–	–
CCCN(CCc1c[nH]c2ccc(F)cc12)C1COc2c(F)ccc(C(N)=O)c2C1 (racemic)	–	> 1000	–	88	484	–	17.6	–
CCCN(CCCc1c[nH]c2ccc(F)cc12)C1COc2c(F)ccc(C(N)=O)c2C1 (racemic)	–	128	–	7.1	–	84	3.5	–
NC(=O)c1ccc(F)c2c1CC(N(CCCCc1c[nH]c3ccc(F)cc13)C1CCC1)CO2 (racemic)	–	300	–	10.4	645	–	–	24
CCCN(CCCc1c[nH]c2ccc(F)cc12)C1COc2cccc(OC)c2C1 (racemic)	–	386	–	–	820	80	–	–
NC(=O)c1ccc(F)c2c1CC(N(CCc1c[nH]c3ccc(F)cc13)CC1CC1)CO2 (racemic)	–	> 1000	–	97.8	636	–	7.3	–
NC(=O)c1ccc(F)c2c1CC(N(CCCc1c[nH]c3ccc(F)cc13)C1CCC1)CO2 (racemic)	16	25.2	–	3	–	–	–	–
NC(=O)c1ccc(F)c2c1CC(N(CCCCc1c[nH]c3ccc(F)cc13)CC1CC1)CO2 (racemic)	–	82.4	–	3.3	506	–	2.1	–
COc1cccc2c1CC(N(CCCc1c[nH]c3ccc(F)cc13)C1CCC1)CO2 (racemic)	15	400	–	–	–	37	–	–
NC(=O)c1ccc(F)c2c1CC(N(CCCc1c[nH]c3ccc(F)cc13)CC1CC1)CO2 (racemic)	32	53.5	–	3.5	–	–	–	–
